Assay results from patent US8962674B2 (Tokyo Institute of Technology, priority 2006, dated 2015).

| Structure (SMILES) | melting point |
| --- | --- |
| COc1ccc(/C=C/C(=O)CC(=O)/C=C/c2cc(OC)c(O)c(OC)c2)cc1O [CU136, (1E,6E)-1-(4-hydroxy-3,5-dimethoxyphenyl)-7-(3-hydroxy-4-methoxyphenyl)hepta-1,6-diene-3,5-dione] | 91 to 95 °C |
| O=C(/C=C/c1ccc(O)cc1)CC(=O)/C=C/c1ncc[nH]1 [CU143, (1E,6E)-1-(4-hydroxyphenyl)-7-(1H-imidazol-2-yl)hepta-1,6-diene-3,5-dione] | 175 to 181 °C |
| O=C(/C=C/c1ccc(O)cc1)CC(=O)/C=C/c1ccc2ccccc2c1 [CU149, (1E,6E)-1-(4-hydroxyphenyl)-7-(naphthalen-2-yl)hepta-1,6-diene-3,5-dione] | 225 to 230 °C |
| COc1ccc(/C=C/C(=O)CC(=O)/C=C/c2ncc[nH]2)cc1O [CU151, (1E,6E)-1-(3-hydroxy-4-methoxyphenyl)-7-(1H-imidazol-2-yl)hepta-1,6-diene-3,5-dione] | 219 to 221 °C |
| O=C(/C=C/c1ccc(O)cc1)CC(=O)/C=C/c1c[nH]cn1 [CU157, (1E,6E)-1-(4-hydroxyphenyl)-7-(1H-imidazol-4-yl)hepta-1,6-diene-3,5-dione] | 168 to 172 °C |
| COc1cccc(/C=C/C(=O)CC(=O)/C=C/c2ccc(O)cc2)c1 [CU158, (1E,6E)-1-(4-hydroxyphenyl)-7-(3-methoxyphenyl)hepta-1,6-diene-3,5-dione] | 74 to 80 °C |
| COc1ccc(/C=C/C(=O)CC(=O)/C=C/c2ccc(OC)c3ccccc23)cc1O [CU163, (1E,6E)-1-(3-hydroxy-4-methoxyphenyl)-7-(4-methoxynaphthalen-1-yl)hepta-1,6-diene-3,5-dione] | 170 to 175 °C |
| COc1ccc(/C=C/C(=O)CC(=O)/C=C/c2ccc3ccccc3c2)cc1O [CU165, (1E,6E)-1-(3-hydroxy-4-methoxyphenyl)-7-(naphthalen-2-yl)hepta-1,6-diene-3,5-dione] | 193 to 194 °C |
| COc1ccc2cc(/C=C/C(=O)CC(=O)/C=C/c3ccc(O)cc3)ccc2c1 [CU166, (1E,6E)-1-(4-hydroxyphenyl)-7-(6-methoxynaphthalen-2-yl)hepta-1,6-diene-3,5-dione] | 217 to 220 °C |
| COc1ccc(/C=C/C(=O)CC(=O)/C=C/c2ccc(N(C)C)c3ccccc23)cc1O [CU168, (1E,6E)-1-(4-dimethylaminonaphthalen-1-yl)-7-(3-hydroxy-4-methoxyphenyl)hepta-1,6-diene-3,5-dione] | 146 to 150 °C |
| COc1ccc2cc(/C=C/C(=O)CC(=O)/C=C/c3ccc(OC)c(O)c3)ccc2c1 [CU171, (1E,6E)-1-(3-hydroxy-4-methoxyphenyl)-7-(6-methoxynaphthalen-2-yl)hepta-1,6-diene-3,5-dione] | 175 to 181 °C |
| COc1c(O)cccc1/C=C/C(=O)CC(=O)/C=C/c1ccc(O)cc1 [CU174, (1E,6E)-1-(4-hydroxyphenyl)-7-(3-hydroxy-2-methoxyphenyl)hepta-1,6-diene-3,5-dione] | 165 to 169 °C |
| COc1cc(O)cc(/C=C/C(=O)CC(=O)/C=C/c2ccc(O)cc2)c1 [CU180, (1E,6E)-1-(4-hydroxyphenyl)-7-(3-hydroxy-5-methoxyphenyl)hepta-1,6-diene-3,5-dione] | 161 to 165 °C |
| COc1cc(O)cc(/C=C/C(=O)CC(=O)/C=C/c2ccc(OC)c(O)c2)c1 [CU182, (1E,6E)-1-(3-hydroxy-4-methoxyphenyl)-7-(3-hydroxy-5-methoxyphenyl)hepta-1,6-diene-3,5-dione] | 196 to 200 °C |
| CS(=O)(=O)c1ccc(/C=C/C(=O)CC(=O)/C=C/c2ccc(O)cc2)cc1 [CU203, (1E,6E)-1-(4-hydroxyphenyl)-7-(4-methanesulfonylphenyl)hepta-1,6-diene-3,5-dione] | 221 to 224 °C |
| COc1cc(/C=C/C(=O)CC(=O)/C=C/c2ccc(O)cc2)cc(OC)c1OC [CU204, (1E,6E)-1-(4-hydroxyphenyl)-7-(3,4,5-trimethoxyphenyl)hepta-1,6-diene-3,5-dione] | 101 to 105 °C |
| COc1ccc(/C=C/C(=O)CC(=O)/C=C/c2cc(OC)c(OC)c(OC)c2)cc1O [CU205, (1E,6E)-1-(3-hydroxy-4-methoxyphenyl)-7-(3,4,5-trimethoxyphenyl)hepta-1,6-diene-3,5-dione] | 195 to 200 °C |

More lines, now with the values ahead:

| melting point | Structure (SMILES) |
| --- | --- |
| 228 to 233 °C | COc1cc(/C=C/C(=O)CC(=O)/C=C/c2ccc(O)cc2)cc(OC)c1O [CU134, (1E,6E)-1-(4-hydroxy-3,5-dimethoxyphenyl)-7-(4-hydroxyphenyl)hepta-1,6-diene-3,5-dione] |
| 136 to 143 °C | COc1cc(/C=C/C(=O)CC(=O)/C=C/c2ccc(O)cc2)ccc1F [CU137, (1E,6E)-1-(4-fluoro-3-methoxyphenyl)-7-(4-hydroxyphenyl)hepta-1,6-diene-3,5-dione] |
| 150 to 155 °C | COc1cc(/C=C/C(=O)CC(=O)/C=C/c2ccc(F)c(OC)c2)ccc1O [CU138, (1E,6E)-1-(4-fluoro-3-methoxyphenyl)-7-(4-hydroxy-3-methoxyphenyl)hepta-1,6-diene-3,5-dione] |
| 145 to 147 °C | COc1ccc(/C=C/C(=O)CC(=O)/C=C/c2ccc(F)c(OC)c2)cc1O [CU139, (1E,6E)-1-(4-fluoro-3-methoxyphenyl)-7-(3-hydroxy-4-methoxyphenyl)hepta-1,6-diene-3,5-dione] |
| 170 to 173 °C | COc1cc(/C=C/C(=O)CC(=O)/C=C/c2cc(Cl)cc(Cl)c2)ccc1O [CU140, (1E,6E)-1-(3,5-dichlorophenyl)-7-(4-hydroxy-3-methoxyphenyl)hepta-1,6-diene-3,5-dione] |
| 176 to 183 °C | COc1ccc(/C=C/C(=O)CC(=O)/C=C/c2cc(Cl)cc(Cl)c2)cc1O [CU141, (1E,6E)-1-(3,5-dichlorophenyl)-7-(3-hydroxy-4-methoxyphenyl)hepta-1,6-diene-3,5-dione] |
| 124 to 130 °C | COc1cc(/C=C/C(=O)CC(=O)/C=C/c2ccc(Cl)cc2Cl)ccc1O [CU144, (1E,6E)-1-(2,4-dichlorophenyl)-7-(4-hydroxy-3-methoxyphenyl)hepta-1,6-diene-3,5-dione] |
| 167 to 170 °C | COc1cc(/C=C/C(=O)CC(=O)/C=C/c2cc3ccccc3n2C)ccc1O [CU147, (1E,6E)-1-(4-hydroxy-3-methoxyphenyl)-7-(1-methyl-1H-indol-2-yl)hepta-1,6-diene-3,5-dione] |
| 235 to 240 °C | COc1cc(/C=C/C(=O)CC(=O)/C=C/c2ncc[nH]2)ccc1O [CU152, (1E,6E)-1-(4-hydroxy-3-methoxyphenyl)-7-(1H-imidazol-2-yl)hepta-1,6-diene-3,5-dione] |
| 117 to 119 °C | COc1cc(/C=C/C(=O)CC(=O)/C=C/c2ccc(N(C)C)cc2OC)ccc1O [CU154, (1E,6E)-1-(4-dimethylamino-2-methoxyphenyl)-7-(4-hydroxy-3-methoxyphenyl)hepta-1,6-diene-3,5-dione] |
| 108 to 113 °C | COc1ccc(/C=C/C(=O)CC(=O)/C=C/c2ccc(N(C)C)cc2OC)cc1O [CU155, (1E,6E)-1-(4-dimethylamino-2-methoxyphenyl)-7-(3-hydroxy-4-methoxyphenyl)hepta-1,6-diene-3,5-dione] |
| 75 to 80 °C | COc1cc(/C=C/C(=O)CC(=O)/C=C/c2cc(O)ccc2OC)ccc1O [CU178, (1E,6E)-1-(4-hydroxy-3-methoxyphenyl)-7-(5-hydroxy-2-methoxyphenyl)hepta-1,6-diene-3,5-dione] |
| 116 to 120 °C | COc1ccc(/C=C/C(=O)CC(=O)/C=C/c2cc(O)ccc2OC)cc1O [CU179, (1E,6E)-1-(3-hydroxy-4-methoxyphenyl)-7-(5-hydroxy-2-methoxyphenyl)hepta-1,6-diene-3,5-dione] |
| 69 to 75 °C | COc1cc(O)cc(/C=C/C(=O)CC(=O)/C=C/c2ccc(O)c(OC)c2)c1 [CU181, (1E,6E)-1-(3-hydroxy-5-methoxyphenyl)-7-(4-hydroxy-3-methoxyphenyl)hepta-1,6-diene-3,5-dione] |
| 142 to 147 °C | COc1cc(/C=C/C(=O)CC(=O)/C=C/c2cc(Cl)ccc2Cl)ccc1O [CU184, (1E,6E)-1-(2,5-dichlorophenyl)-7-(4-hydroxy-3-methoxyphenyl)hepta-1,6-diene-3,5-dione] |
| 140 to 146 °C | COc1ccc(/C=C/C(=O)CC(=O)/C=C/c2cc(Cl)ccc2Cl)cc1O [CU185, (1E,6E)-1-(2,5-dichlorophenyl)-7-(3-hydroxy-4-methoxyphenyl)hepta-1,6-diene-3,5-dione] |
| 135 to 138 °C | COc1cc(/C=C/C(=O)CC(=O)/C=C/c2ccc3[nH]ccc3c2)ccc1O [CU188, (1E,6E)-1-(4-hydroxy-3-methoxyphenyl)-7-(1H-indol-5-yl)hepta-1,6-diene-3,5-dione] |
| 197 to 202 °C | COc1ccc(/C=C/C(=O)CC(=O)/C=C/c2ccc3cc[nH]c3c2)cc1O [CU191, (1E,6E)-1-(3-hydroxy-4-methoxyphenyl)-7-(1H-indol-6-yl)hepta-1,6-diene-3,5-dione] |
| 203 to 210 °C | COc1cc(/C=C/C(=O)CC(=O)/C=C/c2ccc(N(C)C)cc2[N+](=O)[O-])ccc1O [CU192, (1E,6E)-1-(4-dimethylamino-2-nitrophenyl)-7-(4-hydroxy-3-methoxyphenyl)hepta-1,6-diene-3,5-dione] |
| 113 to 120 °C | COc1cc(/C=C/C(=O)CC(=O)/C=C/c2ccc(N(C)C)cc2Cl)ccc1O [CU196, (1E,6E)-1-(2-chloro-4-dimethylaminophenyl)-7-(4-hydroxy-3-methoxyphenyl)hepta-1,6-diene-3,5-dione] |
| 183 to 186 °C | COc1ccc(/C=C/C(=O)CC(=O)/C=C/c2ccc(N(C)C)cc2[N+](=O)[O-])cc1O [CU197, (1E,6E)-1-(4-dimethylamino-2-nitrophenyl)-7-(3-hydroxy-4-methoxyphenyl)hepta-1,6-diene-3,5-dione] |
| 165 to 172 °C | O=C(/C=C/c1ccc(O)cc1)CC(=O)/C=C/c1cc(Cl)cc(Cl)c1 [CU201, (1E,6E)-1-(3,5-dichlorophenyl)-7-(4-hydroxyphenyl)hepta-1,6-diene-3,5-dione] |
| 160 to 164 °C | COc1ccc(/C=C/C(=O)CC(=O)/C=C/c2ccc(N(C)C)cc2Cl)cc1O [CU202, (1E,6E)-1-(2-chloro-4-dimethylaminophenyl)-7-(3-hydroxy-4-methoxyphenyl)hepta-1,6-diene-3,5-dione] |
